According to PMC7971191 (Journal of medicinal chemistry, 2020):

Experiments:
[1] = system: wild-type HIV-1 (NL4-3 strain); test: Cell-based antiviral assay; details: for fold less active than 12a in antiviral assays: compared with 12a
wild-type HIV-1 protease = wild-type HIV-1 protease (Human immunodeficiency virus type 1 group M subtype B, UniProt P12497, Q495K); format: biochemical, HIV-1 (NL4-3 strain); details: for fold less active than the corresponding tert-leucine analogue: 12b vs 12a, 15b vs 15a, inhibitory potency
HIV-1 protease I50V/A71V = HIV-1 protease I50V/A71V (Human immunodeficiency virus type 1 group M subtype B, UniProt P12497, A559V/I538V/Q495K); format: biochemical, HIV-1 (NL4-3 strain); details: Ki compared with 12a

## Cc1cccc(C)c1OCC(=O)N[C@@H](Cc1ccccc1)C[C@H](O)[C@H](Cc1ccccc1)NC(=O)O[C@H]1CO[C@H]2OCC[C@H]21 [Compound 5, reference compound]
[1]; compared with compound 4
  fold better antiviral potency than 4: 2 fold

## COC(=O)N[C@H](C(=O)N[C@@H](Cc1ccccc1)[C@@H](O)C[C@H](Cc1ccccc1)NC(=O)O[C@H]1CO[C@H]2OCC[C@H]21)C(C)(C)C [Compound 12a, (3R,3aS,6aR)-Hexahydrofuro[2,3-b]furan-3-yl ((2S,4S,5S)-4-hydroxy-5-((S)-2-((methoxycarbonyl)amino)-3,3-dimethylbutanamido)-1,6-diphenylhexan-2-yl)carbamate]
[1]; wild-type HIV-1, compared with 15a
  fold more potent than 15a in antiviral assays: 3 fold

## COC(=O)NC1(C(=O)N[C@@H](Cc2ccccc2)[C@@H](O)C[C@H](Cc2ccccc2)NC(=O)O[C@H]2CO[C@H]3OCC[C@H]32)CCCC1 [Compound 12b, (3R,3aS,6aR)-Hexahydrofuro[2,3-b]furan-3-yl ((2S,4S,5S)-4-hydroxy-5-(1-((methoxycarbonyl)amino)cyclopentane-1-carboxamido)-1,6-diphenylhexan-2-yl)carbamate]
wild-type HIV-1 protease
  fold less active than the corresponding tert-leucine analogue: > 2500 fold

## COC(=O)N[C@@H](C)C(=O)N[C@@H](Cc1ccccc1)[C@@H](O)C[C@H](Cc1ccccc1)NC(=O)O[C@H]1CO[C@H]2OCC[C@H]21 [Compound 12d, (3R,3aS,6aR)-Hexahydrofuro[2,3-b]furan-3-yl ((2S,4S,5S)-4-hydroxy-5-((S)-2-((methoxycarbonyl)amino)propanamido)-1,6-diphenylhexan-2-yl)carbamate]
[1]
  fold less active than 12a in antiviral assays: 6 fold

## COC(=O)N[C@H](C(=O)N[C@@H](Cc1ccccc1)[C@@H](O)C[C@H](Cc1ccccc1)NC(=O)O[C@H]1CO[C@H]2OCC[C@H]21)C(C)C [Compound 12e, (3R,3aS,6aR)-Hexahydrofuro[2,3-b]furan-3-yl ((2S,4S,5S)-4-hydroxy-5-((S)-2-((methoxycarbonyl)amino)-3-methylbutanamido)-1,6-diphenylhexan-2-yl)carbamate]
wild-type HIV-1 protease; valine analogue compared with alanine analogue 12d / 12a
  fold less active against wild-type protease: 4 fold
[1]
  fold less active than 12a in antiviral assays: 5 fold

## COC(=O)N[C@H](C(=O)N[C@@H](Cc1ccccc1)C[C@H](O)[C@H](Cc1ccccc1)NC(=O)O[C@H]1CO[C@H]2OCC[C@H]21)C(C)(C)C [Compound 15a, (3R,3aS,6aR)-Hexahydrofuro[2,3-b]furan-3-yl ((2S,3S,5S)-3-hydroxy-5-((S)-2-((methoxycarbonyl)amino)-3,3-dimethylbutanamido)-1,6-diphenylhexan-2-yl)carbamate]
HIV-1 protease I50V/A71V
  fold more active than 12a against the I50V/A71V variant: 4 fold

## COC(=O)NC1(C(=O)N[C@@H](Cc2ccccc2)C[C@H](O)[C@H](Cc2ccccc2)NC(=O)O[C@H]2CO[C@H]3OCC[C@H]32)CCCC1 [Compound 15b, (3R,3aS,6aR)-Hexahydrofuro[2,3-b]furan-3-yl ((2S,3S,5S)-3-hydroxy-5-(1-((methoxycarbonyl)amino)cyclopentane-1-carboxamido)-1,6-diphenylhexan-2-yl)carbamate]
wild-type HIV-1 protease
  fold less active than the corresponding tert-leucine analogue: 560 fold
